In PMC6311682, “Design, Synthesis, and Biological Evaluation of 2-Nitroimidazopyrazin-one/-es with Antitubercular and Antiparasitic Activity” (Journal of Medicinal Chemistry, 2018):

test system: L. donovani MHOM/IN/80/DD8 (ATCC50212); test: L. donovani DD8 intracellular (THP-1) amastigote assay; format: cell-based; conditions: Leishmania donovani, read-out: antiparasitic IC50 L. donovani

Row | Structure (SMILES) | IC50 [µM]
1 | CC(=O)OCCn1c(-c2ccccc2)cn2cc([N+](=O)[O-])nc2c1=O [24b, 2-(2-Nitro-8-oxo-6-phenylimidazo[1,2-a]pyrazin-7(8H)-yl)ethyl Acetate] | > 80
2 | CC(=O)OCCn1c(C)cn2cc([N+](=O)[O-])nc2c1=O [25b, 2-(6-Methyl-2-nitro-8-oxoimidazo[1,2-a]pyrazin-7(8H)-yl)ethyl Acetate] | > 80
3 | Cc1cn2cc([N+](=O)[O-])nc2c(=O)n1Cc1ccc(OC(F)(F)F)cc1 [25f, 6-Methyl-2-nitro-7-(4-(trifluoromethoxy)benzyl)imidazo[1,2-a]pyrazin-8(7H)-one] | > 80
4 | Cc1cn2cc([N+](=O)[O-])nc2c(OCc2ccc(OC(F)(F)F)cc2)n1 [25g, 6-Methyl-2-nitro-8-((4-(trifluoromethoxy)benzyl)oxy)imidazo[1,2-a]pyrazine] | > 80

same assay, conditions: Leishmania donovani, read-out: antiparasitic pIC50 ± SE L. donovani (converted)

Row | Structure (SMILES) | IC50 [µM]
5 | CC(=O)OCCn1c(-c2ccccc2)cn2cc([N+](=O)[O-])nc2c1=O [24b, 2-(2-Nitro-8-oxo-6-phenylimidazo[1,2-a]pyrazin-7(8H)-yl)ethyl Acetate] | > 79.4
6 | CC(=O)OCCn1c(C)cn2cc([N+](=O)[O-])nc2c1=O [25b, 2-(6-Methyl-2-nitro-8-oxoimidazo[1,2-a]pyrazin-7(8H)-yl)ethyl Acetate] | > 79.4
7 | Cc1cn2cc([N+](=O)[O-])nc2c(=O)n1Cc1ccc(OC(F)(F)F)cc1 [25f, 6-Methyl-2-nitro-7-(4-(trifluoromethoxy)benzyl)imidazo[1,2-a]pyrazin-8(7H)-one] | > 79.4
8 | Cc1cn2cc([N+](=O)[O-])nc2c(OCc2ccc(OC(F)(F)F)cc2)n1 [25g, 6-Methyl-2-nitro-8-((4-(trifluoromethoxy)benzyl)oxy)imidazo[1,2-a]pyrazine] | > 79.4

test system: not listed separately; test: Plasma protein binding, ultrafiltration method; format: in vitro ADME; conditions: human plasma, % bound, read-out: PPB (%)

Row | Structure (SMILES) | fraction unbound at 30 min, 5 μM
9 | Cc1cn2cc([N+](=O)[O-])nc2c(OCc2ccc(OC(F)(F)F)cc2)n1 [25g, 6-Methyl-2-nitro-8-((4-(trifluoromethoxy)benzyl)oxy)imidazo[1,2-a]pyrazine] | < 0.01

same assay, conditions: human plasma, % bound, read-out: PPB (%) (converted)

Row | Structure (SMILES) | fraction unbound at 0.5 h, 5 µM
10 | Cc1cn2cc([N+](=O)[O-])nc2c(=O)n1Cc1ccc(OC(F)(F)F)cc1 [25f, 6-Methyl-2-nitro-7-(4-(trifluoromethoxy)benzyl)imidazo[1,2-a]pyrazin-8(7H)-one] | 0.02

test system: T. b. brucei (strain 427, BS427); test: 384-well resazurin viability assay, T. b. brucei bloodstream parasites; format: cell-based; conditions: Trypanosoma brucei, BS427, n = 2; read-out: antiparasitic IC50 T. b. brucei

Row | Structure (SMILES) | IC50 [µM]
11 | CC(=O)OCCn1c(-c2ccccc2)cn2cc([N+](=O)[O-])nc2c1=O [24b, 2-(2-Nitro-8-oxo-6-phenylimidazo[1,2-a]pyrazin-7(8H)-yl)ethyl Acetate] | < 1
12 | CC(=O)OCCn1c(C)cn2cc([N+](=O)[O-])nc2c1=O [25b, 2-(6-Methyl-2-nitro-8-oxoimidazo[1,2-a]pyrazin-7(8H)-yl)ethyl Acetate] | < 1

test system: not listed separately; test: Kinetic solubility determination by LC-UV; conditions: PBS, pH 7.4, Solubility µM (PBS), PBS pH 7.4, 24 h, room temperature, 1% DMSO

Row | Structure (SMILES) | solubility at 24 h [µM]
13 | CC(=O)OCCn1c(-c2ccccc2)cn2cc([N+](=O)[O-])nc2c1=O [24b, 2-(2-Nitro-8-oxo-6-phenylimidazo[1,2-a]pyrazin-7(8H)-yl)ethyl Acetate] | 187 ± 17.4
14 | CC(=O)OCCn1c(C)cn2cc([N+](=O)[O-])nc2c1=O [25b, 2-(6-Methyl-2-nitro-8-oxoimidazo[1,2-a]pyrazin-7(8H)-yl)ethyl Acetate] | > 200
15 | Cc1cn2cc([N+](=O)[O-])nc2c(=O)n1Cc1ccc(OC(F)(F)F)cc1 [25f, 6-Methyl-2-nitro-7-(4-(trifluoromethoxy)benzyl)imidazo[1,2-a]pyrazin-8(7H)-one] | < 5
16 | Cc1cn2cc([N+](=O)[O-])nc2c(OCc2ccc(OC(F)(F)F)cc2)n1 [25g, 6-Methyl-2-nitro-8-((4-(trifluoromethoxy)benzyl)oxy)imidazo[1,2-a]pyrazine] | < 5

same assay, conditions: water, Solubility µM (H2O), 24 h, room temperature, 1% DMSO

Row | Structure (SMILES) | solubility at 24 h [µM]
17 | CC(=O)OCCn1c(-c2ccccc2)cn2cc([N+](=O)[O-])nc2c1=O [24b, 2-(2-Nitro-8-oxo-6-phenylimidazo[1,2-a]pyrazin-7(8H)-yl)ethyl Acetate] | 164 ± 7.57
18 | CC(=O)OCCn1c(C)cn2cc([N+](=O)[O-])nc2c1=O [25b, 2-(6-Methyl-2-nitro-8-oxoimidazo[1,2-a]pyrazin-7(8H)-yl)ethyl Acetate] | > 200
19 | Cc1cn2cc([N+](=O)[O-])nc2c(=O)n1Cc1ccc(OC(F)(F)F)cc1 [25f, 6-Methyl-2-nitro-7-(4-(trifluoromethoxy)benzyl)imidazo[1,2-a]pyrazin-8(7H)-one] | < 5
20 | Cc1cn2cc([N+](=O)[O-])nc2c(OCc2ccc(OC(F)(F)F)cc2)n1 [25g, 6-Methyl-2-nitro-8-((4-(trifluoromethoxy)benzyl)oxy)imidazo[1,2-a]pyrazine] | < 5

test system: C. albicans (ATCC 90028) and C. neoformans (H99, ATCC 208821); test: Broth microdilution MIC assay, fungi; format: cell-based; conditions: not given

Row | Structure (SMILES) | antifungal MIC [µg/mL]
21 | CC(=O)OCCn1c(-c2ccccc2)cn2cc([N+](=O)[O-])nc2c1=O [24b, 2-(2-Nitro-8-oxo-6-phenylimidazo[1,2-a]pyrazin-7(8H)-yl)ethyl Acetate] | >32
22 | CC(=O)OCCn1c(C)cn2cc([N+](=O)[O-])nc2c1=O [25b, 2-(6-Methyl-2-nitro-8-oxoimidazo[1,2-a]pyrazin-7(8H)-yl)ethyl Acetate] | >32
23 | Cc1cn2cc([N+](=O)[O-])nc2c(=O)n1Cc1ccc(OC(F)(F)F)cc1 [25f, 6-Methyl-2-nitro-7-(4-(trifluoromethoxy)benzyl)imidazo[1,2-a]pyrazin-8(7H)-one] | >32
24 | Cc1cn2cc([N+](=O)[O-])nc2c(OCc2ccc(OC(F)(F)F)cc2)n1 [25g, 6-Methyl-2-nitro-8-((4-(trifluoromethoxy)benzyl)oxy)imidazo[1,2-a]pyrazine] | >32

same assay, conditions: Candida albicans, read-out: antifungal MIC

Row | Structure (SMILES) | MIC [µg/mL]
25 | CC(=O)OCCn1c(-c2ccccc2)cn2cc([N+](=O)[O-])nc2c1=O [24b, 2-(2-Nitro-8-oxo-6-phenylimidazo[1,2-a]pyrazin-7(8H)-yl)ethyl Acetate] | > 32
26 | CC(=O)OCCn1c(C)cn2cc([N+](=O)[O-])nc2c1=O [25b, 2-(6-Methyl-2-nitro-8-oxoimidazo[1,2-a]pyrazin-7(8H)-yl)ethyl Acetate] | > 32
27 | Cc1cn2cc([N+](=O)[O-])nc2c(=O)n1Cc1ccc(OC(F)(F)F)cc1 [25f, 6-Methyl-2-nitro-7-(4-(trifluoromethoxy)benzyl)imidazo[1,2-a]pyrazin-8(7H)-one] | > 32
28 | Cc1cn2cc([N+](=O)[O-])nc2c(OCc2ccc(OC(F)(F)F)cc2)n1 [25g, 6-Methyl-2-nitro-8-((4-(trifluoromethoxy)benzyl)oxy)imidazo[1,2-a]pyrazine] | > 32

test system: not listed separately; test: Broth microdilution MIC assay, ESKAPE pathogens; format: cell-based; conditions: S. aureus, E. coli, K. pneumoniae, A. baumannii, P. aeruginosa; read-out: antibacterial MIC ESKAPE

Row | Structure (SMILES) | MIC [µg/mL]
29 | CC(=O)OCCn1c(-c2ccccc2)cn2cc([N+](=O)[O-])nc2c1=O [24b, 2-(2-Nitro-8-oxo-6-phenylimidazo[1,2-a]pyrazin-7(8H)-yl)ethyl Acetate] | > 32
30 | CC(=O)OCCn1c(C)cn2cc([N+](=O)[O-])nc2c1=O [25b, 2-(6-Methyl-2-nitro-8-oxoimidazo[1,2-a]pyrazin-7(8H)-yl)ethyl Acetate] | > 32
31 | Cc1cn2cc([N+](=O)[O-])nc2c(=O)n1Cc1ccc(OC(F)(F)F)cc1 [25f, 6-Methyl-2-nitro-7-(4-(trifluoromethoxy)benzyl)imidazo[1,2-a]pyrazin-8(7H)-one] | > 32
32 | Cc1cn2cc([N+](=O)[O-])nc2c(OCc2ccc(OC(F)(F)F)cc2)n1 [25g, 6-Methyl-2-nitro-8-((4-(trifluoromethoxy)benzyl)oxy)imidazo[1,2-a]pyrazine] | > 32

test system: ESKAPE pathogens S. aureus (ATCC 43300), E. coli (ATCC 25922), K. pneumoniae (ATCC 700603), A. baumannii (ATCC 19606), P. aeruginosa (ATCC 27853); test: Broth microdilution MIC assay, ESKAPE pathogens; format: cell-based; conditions: not given

Row | Structure (SMILES) | antibacterial MIC ESKAPE [µg/mL]
33 | CC(=O)OCCn1c(-c2ccccc2)cn2cc([N+](=O)[O-])nc2c1=O [24b, 2-(2-Nitro-8-oxo-6-phenylimidazo[1,2-a]pyrazin-7(8H)-yl)ethyl Acetate] | >32
34 | CC(=O)OCCn1c(C)cn2cc([N+](=O)[O-])nc2c1=O [25b, 2-(6-Methyl-2-nitro-8-oxoimidazo[1,2-a]pyrazin-7(8H)-yl)ethyl Acetate] | >32
35 | Cc1cn2cc([N+](=O)[O-])nc2c(=O)n1Cc1ccc(OC(F)(F)F)cc1 [25f, 6-Methyl-2-nitro-7-(4-(trifluoromethoxy)benzyl)imidazo[1,2-a]pyrazin-8(7H)-one] | >32
36 | Cc1cn2cc([N+](=O)[O-])nc2c(OCc2ccc(OC(F)(F)F)cc2)n1 [25g, 6-Methyl-2-nitro-8-((4-(trifluoromethoxy)benzyl)oxy)imidazo[1,2-a]pyrazine] | >32

test system: C. difficile (630, ATCC BAA-1382); test: Broth microdilution MIC assay, C. difficile; format: cell-based, Clostridium difficile; conditions: 630 ATCC BAA-1382, median MIC

Row | Structure (SMILES) | antibacterial MIC C. difficile [µg/mL]
37 | CC(=O)OCCn1c(C)cn2cc([N+](=O)[O-])nc2c1=O [25b, 2-(6-Methyl-2-nitro-8-oxoimidazo[1,2-a]pyrazin-7(8H)-yl)ethyl Acetate] | >64
38 | Cc1cn2cc([N+](=O)[O-])nc2c(=O)n1Cc1ccc(OC(F)(F)F)cc1 [25f, 6-Methyl-2-nitro-7-(4-(trifluoromethoxy)benzyl)imidazo[1,2-a]pyrazin-8(7H)-one] | >64
39 | Cc1cn2cc([N+](=O)[O-])nc2c(OCc2ccc(OC(F)(F)F)cc2)n1 [25g, 6-Methyl-2-nitro-8-((4-(trifluoromethoxy)benzyl)oxy)imidazo[1,2-a]pyrazine] | >64

same assay, conditions: Clostridioides difficile, ATCCBAA1382; 630 ATCC BAA-1382, median MIC; read-out: antibacterial MIC C. difficile

Row | Structure (SMILES) | MIC [µg/mL]
40 | CC(=O)OCCn1c(-c2ccccc2)cn2cc([N+](=O)[O-])nc2c1=O [24b, 2-(2-Nitro-8-oxo-6-phenylimidazo[1,2-a]pyrazin-7(8H)-yl)ethyl Acetate] | 64
41 | CC(=O)OCCn1c(C)cn2cc([N+](=O)[O-])nc2c1=O [25b, 2-(6-Methyl-2-nitro-8-oxoimidazo[1,2-a]pyrazin-7(8H)-yl)ethyl Acetate] | > 64
42 | Cc1cn2cc([N+](=O)[O-])nc2c(=O)n1Cc1ccc(OC(F)(F)F)cc1 [25f, 6-Methyl-2-nitro-7-(4-(trifluoromethoxy)benzyl)imidazo[1,2-a]pyrazin-8(7H)-one] | > 64
43 | Cc1cn2cc([N+](=O)[O-])nc2c(OCc2ccc(OC(F)(F)F)cc2)n1 [25g, 6-Methyl-2-nitro-8-((4-(trifluoromethoxy)benzyl)oxy)imidazo[1,2-a]pyrazine] | > 64

test system: not listed separately; test: Mammalian cytotoxicity assay (resazurin), HEK293; conditions: human, HEK293 cells

Row | Structure (SMILES) | CC50 at 24 h [µM]
44 | CC(=O)OCCn1c(-c2ccccc2)cn2cc([N+](=O)[O-])nc2c1=O [24b, 2-(2-Nitro-8-oxo-6-phenylimidazo[1,2-a]pyrazin-7(8H)-yl)ethyl Acetate] | > 100
45 | CC(=O)OCCn1c(C)cn2cc([N+](=O)[O-])nc2c1=O [25b, 2-(6-Methyl-2-nitro-8-oxoimidazo[1,2-a]pyrazin-7(8H)-yl)ethyl Acetate] | > 100
46 | Cc1cn2cc([N+](=O)[O-])nc2c(=O)n1Cc1ccc(OC(F)(F)F)cc1 [25f, 6-Methyl-2-nitro-7-(4-(trifluoromethoxy)benzyl)imidazo[1,2-a]pyrazin-8(7H)-one] | > 100
47 | Cc1cn2cc([N+](=O)[O-])nc2c(OCc2ccc(OC(F)(F)F)cc2)n1 [25g, 6-Methyl-2-nitro-8-((4-(trifluoromethoxy)benzyl)oxy)imidazo[1,2-a]pyrazine] | > 100

test system: not listed separately; test: Mammalian cytotoxicity assay (resazurin), HepG2; conditions: human, HepG2 cells

Row | Structure (SMILES) | CC50 at 24 h [µM]
48 | CC(=O)OCCn1c(-c2ccccc2)cn2cc([N+](=O)[O-])nc2c1=O [24b, 2-(2-Nitro-8-oxo-6-phenylimidazo[1,2-a]pyrazin-7(8H)-yl)ethyl Acetate] | > 100
49 | CC(=O)OCCn1c(C)cn2cc([N+](=O)[O-])nc2c1=O [25b, 2-(6-Methyl-2-nitro-8-oxoimidazo[1,2-a]pyrazin-7(8H)-yl)ethyl Acetate] | > 100
50 | Cc1cn2cc([N+](=O)[O-])nc2c(=O)n1Cc1ccc(OC(F)(F)F)cc1 [25f, 6-Methyl-2-nitro-7-(4-(trifluoromethoxy)benzyl)imidazo[1,2-a]pyrazin-8(7H)-one] | > 100
51 | Cc1cn2cc([N+](=O)[O-])nc2c(OCc2ccc(OC(F)(F)F)cc2)n1 [25g, 6-Methyl-2-nitro-8-((4-(trifluoromethoxy)benzyl)oxy)imidazo[1,2-a]pyrazine] | > 100
